These compounds were tested on MCF7 (assay: Compound was tested for binding affinity against nuclear ER in MCF-7 cell extracts).
Type: functional, cell-based, Homo sapiens

Compound	Kd [nM]
CCN(CC)CCOc1ccc(/C(=C(/C#N)c2ccccc2)c2ccc(O)cc2)cc1	1.11
CCN(CC)CCOc1ccc(/C(=C(\c2ccccc2)[N+](=O)[O-])c2ccc(O)cc2)cc1	0.56
CCN(CC)CCOc1ccc(/C(=C\c2ccccc2)c2ccc(O)cc2)cc1	1.11
CC/C(=C(\c1ccc(O)cc1)c1ccc(OCCN(CC)CC)cc1)c1ccccc1	0.29
CCN(CC)CCOc1ccc(/C(=C(/Br)c2ccccc2)c2ccc(O)cc2)cc1	0.36
CCN(CC)CCOc1ccc(/C(=C(/Cl)c2ccccc2)c2ccc(O)cc2)cc1 [4-OH-ENCLOMIPHENE]	0.11

— ChEMBL document CHEMBL1123386, “Substituted-vinyl hydroxytriarylethylenes, 1-[4-[2-(diethylamino) ethoxy]phenyl]-1-(4-hydroxyphenyl)-2-phenylethylenes: synthesis and effects on MCF 7 breast cancer cell proliferation” (J Med Chem, 1986)
